Biological target: T1, human serum albumin (HSA) (Homo sapiens, UniProt P02768)
T1 construct: purchased Sigma (St. Louis, MO, USA)
Experiment: HSA fluorescence quenching (steady-state fluorescence titration)
Format: binding
Conditions: for KSV, Stern–Volmer quenching constant: HSA 4 μM, pH 7.4; for ΔH / ΔS: van't Hoff plot, 25–35 °C; for blue shift of HSA fluorescence emission maximum: λex 280 nm
Procedure: Human serum albumin (HSA) emission spectra were recorded in the absence and presence of different amounts of acridine derivatives (3a–3d) at a range of 285 to 550 nm upon excitation at 280 nm. The emission maximum of fluorescence intensity of HSA was identified at 340 nm. […] The fluorescence intensity of HSA in the presence of the acridine derivatives decreases in the relation […], with decreases of 58%, 51%, 43% and 38%, respectively. Moreover, the reduction of fluorescence emission of HSA by derivatives 3a–3d was accompanied by an apparent change in the position of the maximum wavelength of the fluorescence emission, with a blue shift of 6 nm (3d) ≈ (3b) < 7 nm (3c) < 8 nm (3a).
The appearance of an isoactinic point at 430 nm might also indicate the existence of an equilibrium between bound and free drugs, with the presence of such an equilibrium possibly emphasizing the formation of the drug–protein complex. Fluorescence quenching can be divided into the two processes of dynamic and static quenching. In dynamic quenching, the fluorophore and quencher are in contact in an excited state, increasing the temperature and resulting in faster diffusion and a higher frequency of collision, which in turn increases the quenching constant. In comparison, static quenching is typical in complexes formed between the fluorophore and quencher in a ground state in which the increasing temperature weakens the stability of the complex. Quantitative analysis was performed by using the Stern–Volmer Equation (1):(1) F0/F=1+KSVQ=1+Kqτ0Q, where F0 and F represent the fluorescence intensity of HSA in the absence and presence of acridine derivatives, respectively. KSV is the Stern–Volmer dynamic quenching constant which was determined from the plot of relative intensity F0/F of fluorescence vs. the concentration of the acridine derivative. Kq is the quenching rate constant of biomolecules, which is known to be around 2.0 × 10^10 M^−1 s^−1, and τ0 is the average lifetime of the fluorophore in the absence of the quencher, with a typical value equal to around 10^−8 for biomolecules. The quenching constant KSV of derivatives 3a–3d were of 10^5 M^−1. The KSV values recorded for derivatives 3a and 3b decreased at increasing temperatures, while those of derivatives 3c and 3d increased at increasing temperatures. The increased KSV values at increasing temperature in the presence of derivative 3c may indicate that the binding forces are mainly hydrophobic (endothermic apolar interactions are strengthened at increasing temperatures). Additionally, the Kq values obtained for HSA of 10^13 M^−1 s^−1 are greater than the limiting diffusion rate constant of diffusional quenching for biopolymers (2.0 × 10^10 M^−1 s^−1).
In order to evaluate the magnitude of the interaction, other parameters such as the binding constant ( Kb) and the number of binding sites (n) on the drug–HSA complex were calculated at three temperatures using Equation (2):(2) logF0−F/F=logKb+nlogQ, where F0 and F are the fluorescence intensity of the fluorophore (HSA) in the absence and presence of the quencher-acridine derivative, and [Q] is the quencher concentration. The values of Kb and n were determined using the linear regression of a plot of log(F0 − F/F) to log[Q] (Figure S3). […] Since the values of Kb were 10^5 M^−1 (3a–3c) or 10^4 M^−1 (3d), it would therefore be suitable for distribution in the plasma in vivo.
Based on the Kb dependency on temperature, it is, therefore, possible to analyse the temperature-dependent thermodynamic parameters which can be considered as responsible for the formation of a complex. […]

T1 sequence (P02768 25-609): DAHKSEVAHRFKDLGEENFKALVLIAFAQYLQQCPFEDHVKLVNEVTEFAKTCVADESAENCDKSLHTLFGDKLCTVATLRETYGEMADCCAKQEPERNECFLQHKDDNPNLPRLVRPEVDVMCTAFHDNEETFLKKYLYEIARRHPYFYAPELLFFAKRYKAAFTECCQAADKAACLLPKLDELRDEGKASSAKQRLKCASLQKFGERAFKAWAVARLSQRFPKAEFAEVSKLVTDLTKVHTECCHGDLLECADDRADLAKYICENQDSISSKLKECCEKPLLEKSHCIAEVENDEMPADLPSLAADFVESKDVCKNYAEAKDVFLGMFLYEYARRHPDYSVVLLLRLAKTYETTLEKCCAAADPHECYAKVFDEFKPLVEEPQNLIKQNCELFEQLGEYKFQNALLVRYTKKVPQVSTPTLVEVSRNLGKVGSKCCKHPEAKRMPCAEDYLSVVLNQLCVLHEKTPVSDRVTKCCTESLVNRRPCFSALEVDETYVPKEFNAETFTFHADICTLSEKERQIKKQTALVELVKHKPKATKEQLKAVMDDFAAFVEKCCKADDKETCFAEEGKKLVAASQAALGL

| Kq, bimolecular quenching rate constant (25 °C) [M⁻¹ s⁻¹] | n, number of binding sites (25 °C) | ΔG (25 °C) [kJ/mol] | KSV, Stern–Volmer quenching constant (25 °C) [M⁻¹] | Kq, bimolecular quenching rate constant (30 °C) [M⁻¹ s⁻¹] | n, number of binding sites (30 °C) | ΔG (30 °C) [kJ/mol] | KSV, Stern–Volmer quenching constant (30 °C) [M⁻¹] | Kq, bimolecular quenching rate constant (35 °C) [M⁻¹ s⁻¹] | n, number of binding sites (35 °C) | ΔG (35 °C) [kJ/mol] | KSV, Stern–Volmer quenching constant (35 °C) [M⁻¹] | ΔH [kJ/mol] | ΔS | KSV for the HSA-3a complex (without site marker) [M⁻¹] | Kb for the HSA-3a complex (without site marker) [M⁻¹] | blue shift of HSA fluorescence emission maximum [nm] | SMILES |
| --- | --- | --- | --- | --- | --- | --- | --- | --- | --- | --- | --- | --- | --- | --- | --- | --- | --- |
| 2.67e+13 | 1.068 | -33.13 | 267000 | 2.68e+13 | 1.054 | -32.96 | 268000 | 2.61e+13 | 1.023 | -32.79 | 261000 | -43.21 | −33.80 ×10^−3 kJ mol^−1 K^−1 | 267000 | 610000 | 8 | O=C(N/N=C/c1cccc2cc3ccccc3nc12)c1ccccc1 [3a, N′-[(E)-(Acridin-4-yl)methylidene]benzohydrazide] |
| 1.51e+13 | 1.079 | -32.05 | 151000 | 1.57e+13 | 1.061 | -31.84 | 157000 | 1.37e+13 | 1.039 | -31.62 | 137000 | -44.94 | −43.24 ×10^−3 kJ mol^−1 K^−1 |  |  | ~6 | O=C(N/N=C/c1cccc2cc3ccccc3nc12)c1ccc(F)cc1 [3b, N′-[(E)-Acridin-4-ylmethylidene]-4-fluorobenzohydrazide] |
| 2.29e+13 | 0.888 | -26.89 | 229000 | 2.48e+13 | 0.925 | -29.74 | 248000 | 2.62e+13 | 1.030 | -32.58 | 262000 | 142.55 | 568.32 ×10^−3 kJ mol^−1 K^−1 |  |  | 7 | O=C(N/N=C/c1cccc2cc3ccccc3nc12)c1ccc(Cl)cc1 [3c, N′-[(E)-Acridin-4-ylmethylidene]-4-chlorobenzohydrazide] |
| 1.16e+13 | 1.052 | -30.33 | 116000 | 2.06e+13 | 0.917 | -28.57 | 206000 | 2.42e+13 | 0.846 | -26.81 | 242000 | -135.40 | −352.39 ×10^−3 kJ mol^−1 K^−1 |  |  | 6 | O=C(N/N=C/c1cccc2cc3ccccc3nc12)c1ccc(Br)cc1 [3d, N′-[(E)-Acridin-4-ylmethylidene]-4-bromobenzohydrazide] |
